Measurements reported in ChEMBL document CHEMBL3885861, “Open TG-GATES”.

Species on record: Rattus norvegicus
Experiment: Open TG-GATES - Regimen: Single
Type: toxicity, organism-based, Sprague-Dawley
Design: regimen Single, gender Male, age 6 weeks
Conditions: in vivo, po, 8 mg/kg, route gavage, dose level Low; for APTT / Bas / Eos / Fbg / Hb / Ht / Lym / MCH / MCHC / MCV / Mono / Neu / PT / Plat / RBC / Ret / WBC: tissue Blood; for KIDNEY_L / KIDNEY_R / KIDNEY_TOTAL: tissue Kidney; for LIVER: tissue Liver; for A/G / ALP / ALT / AST / BUN / CRE / Ca / Cl / DBIL / GLC / IP / K / LDH / Na / PL / RALB / TBIL / TC / TG / TP / gamma-GTP: tissue Plasma

NC1=NC(=O)C(c2ccccc2)O1 (configuration not stated) [PEMOLINE]
TERMINAL_BW (3 h): 210.1 g
APTT (3 h): 15.6 s
Bas (3 h): 0%
Eos (3 h): 0.6%
Fbg (3 h): 289.6 mg/dL
Hb (3 h): 13.2 g/dL
Ht (3 h): 38.9%
Lym (3 h): 79.4%
MCH (3 h): 21.9 pg
MCHC (3 h): 34.1%
MCV (3 h): 64.2 fL
Mono (3 h): 3.2%
Neu (3 h): 16.2%
PT (3 h): 13.2 s
Plat (3 h): 112.1 x10_4/uL
RBC (3 h): 605.6 x10_4/ul
Ret (3 h): 9.3%
WBC (3 h): 89 x10_2/uL
KIDNEY_L (3 h): 0.9 g
KIDNEY_R (3 h): 0.9 g
KIDNEY_TOTAL (3 h): 1.8 g
LIVER (3 h): 9 g
A/G (3 h): 1
ALP (3 h): 1585.2 IU/L
ALT (3 h): 44 IU/L
AST (3 h): 83 IU/L
BUN (3 h): 8.2 mg/dL
CRE (3 h): 0.2 mg/dL
Ca (3 h): 10.7 mg/dL
Cl (3 h): 106.2 meq/L
DBIL (3 h): 0.014 mg/dL
GLC (3 h): 174.2 mg/dL
IP (3 h): 7.9 mg/dL
K (3 h): 4.1 meq/L
LDH (3 h): 68.8 IU/L
Na (3 h): 139.6 meq/L
PL (3 h): 126.6 mg/dL
RALB (3 h): 2.7 g/dL
TBIL (3 h): 0.042 mg/dL
TC (3 h): 77 mg/dL
TG (3 h): 45.8 mg/dL
TP (3 h): 5.3 g/dL
gamma-GTP (3 h): 1.4 IU/L
TERMINAL_BW (6 h): 211.2 g
APTT (6 h): 15.8 s
Bas (6 h): 0%
Eos (6 h): 1%
Fbg (6 h): 309 mg/dL
Hb (6 h): 13.5 g/dL
Ht (6 h): 39.8%
Lym (6 h): 75.6%
MCH (6 h): 21.9 pg
MCHC (6 h): 33.9%
MCV (6 h): 64.6 fL
Mono (6 h): 3.4%
Neu (6 h): 19.6%
PT (6 h): 13.1 s
Plat (6 h): 112.7 x10_4/uL
RBC (6 h): 616.4 x10_4/ul
Ret (6 h): 8.9%
WBC (6 h): 81.1 x10_2/uL
KIDNEY_L (6 h): 0.9 g
KIDNEY_R (6 h): 0.9 g
KIDNEY_TOTAL (6 h): 1.8 g
LIVER (6 h): 8.7 g
A/G (6 h): 1
ALP (6 h): 1539 IU/L
ALT (6 h): 44 IU/L
AST (6 h): 80 IU/L
BUN (6 h): 8 mg/dL
CRE (6 h): 0.2 mg/dL
Ca (6 h): 10.7 mg/dL
Cl (6 h): 104.8 meq/L
DBIL (6 h): 0.014 mg/dL
GLC (6 h): 186.2 mg/dL
IP (6 h): 9.9 mg/dL
K (6 h): 3.9 meq/L
LDH (6 h): 56.8 IU/L
Na (6 h): 140.6 meq/L
PL (6 h): 127 mg/dL
RALB (6 h): 2.8 g/dL
TBIL (6 h): 0.042 mg/dL
TC (6 h): 78.4 mg/dL
TG (6 h): 37.4 mg/dL
TP (6 h): 5.5 g/dL
gamma-GTP (6 h): 1.4 IU/L
TERMINAL_BW (9 h): 209.7 g
APTT (9 h): 15.9 s
Bas (9 h): 0%
Eos (9 h): 1%
Fbg (9 h): 319.2 mg/dL
Hb (9 h): 13.3 g/dL
Ht (9 h): 39.2%
Lym (9 h): 77.8%
MCH (9 h): 21.9 pg
MCHC (9 h): 34%
MCV (9 h): 64.2 fL
Mono (9 h): 2.8%
Neu (9 h): 18%
PT (9 h): 13.2 s
Plat (9 h): 117.5 x10_4/uL
RBC (9 h): 611 x10_4/ul
Ret (9 h): 9.2%
WBC (9 h): 91 x10_2/uL
KIDNEY_L (9 h): 0.9 g
KIDNEY_R (9 h): 0.9 g
KIDNEY_TOTAL (9 h): 1.8 g
LIVER (9 h): 7.7 g
A/G (9 h): 1
ALP (9 h): 1372.4 IU/L
ALT (9 h): 40.6 IU/L
AST (9 h): 74.2 IU/L
BUN (9 h): 8.2 mg/dL
CRE (9 h): 0.2 mg/dL
Ca (9 h): 10.4 mg/dL
Cl (9 h): 106 meq/L
DBIL (9 h): 0.012 mg/dL
GLC (9 h): 172.2 mg/dL
IP (9 h): 9.7 mg/dL
K (9 h): 3.9 meq/L
LDH (9 h): 57.4 IU/L
Na (9 h): 140.4 meq/L
PL (9 h): 122.4 mg/dL
RALB (9 h): 2.7 g/dL
TBIL (9 h): 0.044 mg/dL
TC (9 h): 78.4 mg/dL
TG (9 h): 28.4 mg/dL
TP (9 h): 5.3 g/dL
gamma-GTP (9 h): 1.4 IU/L
TERMINAL_BW (24 h): 216.4 g
APTT (24 h): 16.8 s
Bas (24 h): 0%
Eos (24 h): 0.8%
Fbg (24 h): 274.6 mg/dL
Hb (24 h): 13 g/dL
Ht (24 h): 38.4%
Lym (24 h): 77.8%
MCH (24 h): 22.1 pg
MCHC (24 h): 33.9%
MCV (24 h): 65.2 fL
Mono (24 h): 3.4%
Neu (24 h): 17.4%
PT (24 h): 12.9 s
Plat (24 h): 118.4 x10_4/uL
RBC (24 h): 590.2 x10_4/ul
Ret (24 h): 8.1%
WBC (24 h): 88.3 x10_2/uL
KIDNEY_L (24 h): 0.9 g
KIDNEY_R (24 h): 0.9 g
KIDNEY_TOTAL (24 h): 1.9 g
LIVER (24 h): 10 g
A/G (24 h): 1
ALP (24 h): 1622.2 IU/L
ALT (24 h): 43 IU/L
AST (24 h): 70.2 IU/L
BUN (24 h): 15.2 mg/dL
CRE (24 h): 0.2 mg/dL
Ca (24 h): 11 mg/dL
Cl (24 h): 105 meq/L
DBIL (24 h): 0.018 mg/dL
GLC (24 h): 177.8 mg/dL
IP (24 h): 8.2 mg/dL
K (24 h): 3.9 meq/L
LDH (24 h): 61.8 IU/L
Na (24 h): 142.2 meq/L
PL (24 h): 133.8 mg/dL
RALB (24 h): 2.8 g/dL
TBIL (24 h): 0.03 mg/dL
TC (24 h): 76 mg/dL
TG (24 h): 69.4 mg/dL
TP (24 h): 5.6 g/dL
gamma-GTP (24 h): 1 IU/L
